# Measured values from article PMC11672294, “The Antipsychotic Drug Aripiprazole Suppresses Colorectal Cancer by Targeting LAMP2a to Induce RNH1/miR‐99a/mTOR‐Mediated Autophagy and Apoptosis” (Advanced Science, 2024).
# Counter-ions that a name gives are not always drawn.
# System: HT29
# Conditions: 72 h, relative to DMSO, 10 µM, Relative cell viability (%)
# From the text: To investigate the key signaling pathways and biological processes involved in CRC progression, we analyzed the National Center for Biotechnology Information Gene Expression Omnibus (GEO) dataset GSE115313, which included 42 CRC and paired normal tissues (Figure 1A). […] Next, we performed an Annexin V‐fluorescein isothiocyanate (FITC)/propidium iodide (PI) staining assay to determine the effect of aripiprazole on apoptosis in CRC cells. […] A) Principal component analysis of GEO dataset (GSE115313), which includes 42 CRC and paired normal tissues. B) Gene Ontology pathway analysis of the DEPs between CRC and paired normal tissues. […] D) Schematic diagram for identifying anticancer drugs amongst an US Food and Drug Administration‐approved small‐molecule library (616 compounds) using WST‐1 assay. E) HT29 cells were treated with the 616 drugs (10 µM) individually or with dimethyl sulfoxide for 72 h, followed by WST‐1 assay. […] J) Mice bearing HT29‐derived tumor xenografts were intragastrically administered with aripiprazole (10 or 20 mg kg^−1) once every 2 d, n = 6 mice/group. […] Bars, SD; ^* p < 0.05; ^** p < 0.01; ^*** p < 0.001; ns, no significant difference. The WST‐1 Cell Proliferation and Cytotoxicity Assay Kit (Beyotime Biotechnology, Shanghai, China) was used to measure cell viability, as described previously.^[ [10] ^] CRC cells were seeded into 96‐well plates and treated with different drug concentrations. Following that, WST‐1 was added to the plate and incubated with the cells for 2 h, at 37 °C. Absorbance at the wavelength of 450 nm was measured using an automated microplate spectrophotometer (BioTek Instruments, Winooski, VT, USA).
row,SMILES,Relative cell viability (%) [%]
1,Cc1c(-c2ccc(O)cc2)n(Cc2ccc(OCCN3CCCCCC3)cc2)c2ccc(O)cc12 [Bazedoxifene HCl],91.36

# Same assay, conditions: 72 h, relative to DMSO; 10 µM
row,SMILES,Relative cell viability (%) [%]
1,CC(C)(Sc1cc(C(C)(C)C)c(O)c(C(C)(C)C)c1)Sc1cc(C(C)(C)C)c(O)c(C(C)(C)C)c1 [Probucol],130.3
2,CCN(CC)CCNC(=O)c1c(C)[nH]c(/C=C2\C(=O)Nc3ccc(F)cc32)c1C [Sunitinib],29.06
3,CC(C)OC(=O)C(C)(C)Oc1ccc(C(=O)c2ccc(Cl)cc2)cc1 [Fenofibrate],74.15
4,CN1CCc2nc(C(=O)N[C@@H]3C[C@@H](C(=O)N(C)C)CC[C@@H]3NC(=O)C(=O)Nc3ccc(Cl)cn3)sc2C1 [Edoxaban],95.73
5,COC(=O)C1=C(C)NC(C)=C(C(=O)OCC(C)C)C1c1ccccc1[N+](=O)[O-] (centres unmarked) [Nisoldipine],56.36
6,Cc1c(O)cccc1C(=O)N[C@@H](CSc1ccccc1)[C@H](O)CN1C[C@H]2CCCC[C@H]2C[C@H]1C(=O)NC(C)(C)C [Nelfinavir Mesylate],23.94
7,"CCCS(=O)(=O)Nc1ccc(F)c(C(=O)c2c[nH]c3ncc(-c4ccc(Cl)cc4)cc23)c1F [Vemurafenib (PLX4032, RG7204)]",36.92
8,CCC1=C[C@@H]2CN(C1)Cc1c([nH]c3ccccc13)[C@@](C(=O)OC)(c1cc3c(cc1OC)N(C)[C@H]1[C@@](O)(C(=O)OC)[C@H](OC(C)=O)[C@]4(CC)C=CCN5CC[C@]31[C@@H]54)C2 [Vinorelbine Tartrate],15.76
9,NC(=O)c1cc(N2CC2)c([N+](=O)[O-])cc1[N+](=O)[O-] [CB1954],115
10,COCCCN1CCC(NC(=O)c2cc(Cl)c(N)c3c2OCC3)CC1 [Prucalopride],129.1
11,O=C(N/N=C/c1ccc([N+](=O)[O-])o1)c1ccc(O)cc1 [Nifuroxazide],43.03
12,COc1cc(C(=O)O)ccc1NC(=O)[C@@H]1N[C@@H](CC(C)(C)C)[C@](C#N)(c2ccc(Cl)cc2F)[C@H]1c1cccc(Cl)c1F [Idasanutlin (RG-7388)],98.29
13,Cc1ccc(S(=O)(=O)NC(=O)NN2CC3CCC[C@@H]3C2)cc1 (stereo in doubt) [Gliclazide],70.87
14,CO[C@H]1/C=C/O[C@@]2(C)Oc3c(C)c(O)c4c(c3C2=O)C2=NC3(CCN(CC(C)C)CC3)NC2=C(NC(=O)/C(C)=C\C=C\[C@H](C)[C@H](O)[C@@H](C)[C@@H](O)[C@@H](C)[C@H](OC(C)=O)[C@@H]1C)C4=O [Rifabutin],70.34
15,Clc1ccc(C(Cn2ccnc2)OCc2ccsc2Cl)c(Cl)c1 (centres unmarked) [Tioconazole],135.7
16,Cc1cnc(NC(=O)C2=C(O)c3ccccc3S(=O)(=O)N2C)s1 [Meloxicam],51.27
17,Cc1cccc(CN2CCN(C(c3ccccc3)c3ccc(Cl)cc3)CC2)c1 (centres unmarked) [Meclizine 2HCl],130.4
18,C[C@]12CCC3=C4CCC(=O)C=C4CC[C@H]3[C@@H]1CC[C@@]2(O)CC#N [Dienogest],96.11
19,C#C[C@]1(O)CC[C@H]2[C@@H]3CCc4cc(OC)ccc4[C@H]3CC[C@@]21C [Mestranol],119.6
20,CC(CN1c2ccccc2Sc2ccccc21)N(C)C (centres unmarked) [Promethazine HCl],62.12

row,SMILES,Relative cell viability (%) [%]
1,O=C1CCc2cc(OCCCCc3nnnn3C3CCCCC3)ccc2N1 [Cilostazol],80.53
2,CC(=O)Oc1cccc2c1C(=O)c1c(OC(C)=O)cc(C(=O)O)cc1C2=O [Diacerein],73.94
3,"C/C(=C\c1csc(C)n1)[C@@H]1C[C@@H]2O[C@]2(C)CCC[C@H](C)[C@H](O)[C@@H](C)C(=O)C(C)(C)[C@@H](O)CC(=O)O1 [Epothilone B (EPO906, Patupilone)]",7.321
4,CC(=O)O[C@]1(C(C)=O)CC[C@H]2[C@@H]3C=C(Cl)C4=CC(=O)[C@@H]5C[C@@H]5[C@]4(C)[C@H]3CC[C@@]21C [Cyproterone Acetate],132.9
5,CCCc1cc(=O)[nH]c(=S)[nH]1 [Propylthiouracil],201.3
6,O=C(O)Cc1cc(I)c(Oc2ccc(O)c(I)c2)c(I)c1 [Tiratricol],83.03
7,C[C@@H]1C[C@H]2[C@@H]3CCC4=CC(=O)C=C[C@]4(C)[C@@]3(Cl)[C@@H](O)C[C@]2(C)[C@@]1(OC(=O)c1ccco1)C(=O)CCl [Mometasone furoate],144.2
8,O=C(CCCN1CCN(c2ccccn2)CC1)c1ccc(F)cc1 [Azaperone],93.03
9,Fc1ccc(C(c2ccc(F)cc2)N2CCN(C/C=C/c3ccccc3)CC2)cc1 [Flunarizine 2HCl],73.29
10,C=C1[C@H](CO)[C@@H](O)C[C@@H]1n1cnc2c(=O)[nH]c(N)nc21 [Entecavir Hydrate],99.22
11,C[C@H](NC(=O)C(=O)Nc1ccccc1C(C)(C)C)C(=O)N[C@@H](CC(=O)O)C(=O)COc1c(F)c(F)cc(F)c1F [Emricasan],86.75
12,Cc1cc(Nc2cc(CN3CCOCC3)c3nc(C)c(Cc4ccc(Cl)cc4F)n3n2)n[nH]1 [LY2784544],102.6
13,CC[C@H](C)C(=O)O[C@H]1C[C@@H](C)C=C2C=C[C@H](C)[C@H](CC[C@@H]3C[C@@H](O)CC(=O)O3)[C@H]21 [Lovastatin],169.7
14,CCCCOc1ccc(CC(=O)NO)cc1 [Bufexamac],101.5
15,C[C@@H]1CC(=O)NN=C1c1ccc(NN=C(C#N)C#N)cc1 [Levosimendan],103.1
16,CCCCc1oc2ccc(NS(C)(=O)=O)cc2c1C(=O)c1ccc(OCCCN(CCCC)CCCC)cc1 [Dronedarone HCl],86.05
17,"COc1cc2ncnc(Nc3ccc(F)c(Cl)c3)c2cc1NC(=O)/C=C/CN1CCCCC1 [Dacomitinib (PF299804, PF299)]",11.17
18,CNC(=C[N+](=O)[O-])NCCSCc1ccc(CN(C)C)o1 [Ranitidine],97.03
19,CN(C)c1ccc(C(=C2C=CC(=[N+](C)C)C=C2)c2ccc(N(C)C)cc2)cc1 [Crystal Violet],4.52
20,Cc1c(-c2ccnn2C)cc(C(=O)NCc2ccc(S(C)(=O)=O)cn2)c(=O)n1-c1cccc(C(F)(F)F)c1 [Alvelestat (AZD9668)],116.2

row,SMILES,Relative cell viability (%) [%]
1,CCCCNc1cc(C(=O)O)cc(S(N)(=O)=O)c1Oc1ccccc1 [Bumetanide],61.84
2,O=c1[nH]c(=O)n(C2CCCO2)cc1F (centres unmarked) [FT-207 (NSC 148958)],74.3
3,CN(C)CCOc1ccc(/C(=C(/CCCl)c2ccccc2)c2ccccc2)cc1 [Toremifene Citrate],34.75
4,CC/C(=C(/CC)c1ccc(O)cc1)c1ccc(O)cc1 [Diethylstilbestrol],69.07
5,CC(C(=O)O)c1cccc(Oc2ccccc2)c1 (centres unmarked) [Fenoprofen Calcium],99.58
6,Cc1nnc(C(=O)NC(C)(C)c2nc(C(=O)NCc3ccc(F)cc3)c(O)c(=O)n2C)o1 [Raltegravir (MK-0518)],181.8
7,C[C@@H]1COC(Nc2ccc3ncnc(Nc4ccc(OCc5nccs5)c(Cl)c4)c3c2)=N1 [Varlitinib],111.6
8,CN1C(C(=O)Nc2ccccn2)=C(O)c2sc(Cl)cc2S1(=O)=O [Lornoxicam],228.6
9,OC(Cn1cncn1)(Cn1cncn1)c1ccc(F)cc1F [Fluconazole],66.51
10,N=C(N)NC(=O)c1nc(Cl)c(N)nc1N [Amiloride HCl],66.53
11,O=C1Nc2ccc(Cl)cc2[C@@](C#CC2CC2)(C(F)(F)F)O1 [Efavirenz],72.65
12,CN1CC[C@H](c2c(O)cc(O)c3c(=O)cc(-c4ccccc4Cl)oc23)[C@H](O)C1 [Flavopiridol (Alvocidib)],8.879
13,CO[C@H]1C(=O)[C@]2(C)[C@@H](OC)C[C@H]3OC[C@@]3(OC(C)=O)[C@H]2[C@H](OC(=O)c2ccccc2)[C@]2(O)C[C@H](OC(=O)[C@H](O)[C@@H](NC(=O)OC(C)(C)C)c3ccccc3)C(C)=C1C2(C)C [Cabazitaxel],12.62
14,Cc1nnc(C(C)C)n1[C@@H]1C[C@H]2CC[C@@H](C1)N2CC[C@H](NC(=O)C1CCC(F)(F)CC1)c1ccccc1 [Maraviroc],135.7
15,CCN(CCCc1ccccc1)CCCc1ccccc1 [Alverine Citrate],78.16
16,Cc1cnc(Nc2ccc(OCCN3CCCC3)cc2)nc1Nc1cccc(S(=O)(=O)NC(C)(C)C)c1 [TG101348 (SAR302503)],16.99
17,CCOC(=O)C1=C[C@]2(CC)CCCN3CCc4c(n1c1ccccc41)[C@@H]32 [Vinpocetine],107.3
18,O=C(Nc1cccc2c(=O)cc(-c3nnn[nH]3)oc12)c1ccc(OCCCCc2ccccc2)cc1 [Pranlukast],81.78
